{
  "source": "paper PMC10073911",
  "about": "“N-Arylacetamide derivatives of methyl 1,2-benzothiazine-3-carboxylate as potential drug candidates for urease inhibition” (Royal Society Open Science, 2023)",
  "key": {"urease": {"molecular_target": "urease (Canavalia ensiformis, UniProt P07374)", "sequence (P07374 whole entry, looked up)": "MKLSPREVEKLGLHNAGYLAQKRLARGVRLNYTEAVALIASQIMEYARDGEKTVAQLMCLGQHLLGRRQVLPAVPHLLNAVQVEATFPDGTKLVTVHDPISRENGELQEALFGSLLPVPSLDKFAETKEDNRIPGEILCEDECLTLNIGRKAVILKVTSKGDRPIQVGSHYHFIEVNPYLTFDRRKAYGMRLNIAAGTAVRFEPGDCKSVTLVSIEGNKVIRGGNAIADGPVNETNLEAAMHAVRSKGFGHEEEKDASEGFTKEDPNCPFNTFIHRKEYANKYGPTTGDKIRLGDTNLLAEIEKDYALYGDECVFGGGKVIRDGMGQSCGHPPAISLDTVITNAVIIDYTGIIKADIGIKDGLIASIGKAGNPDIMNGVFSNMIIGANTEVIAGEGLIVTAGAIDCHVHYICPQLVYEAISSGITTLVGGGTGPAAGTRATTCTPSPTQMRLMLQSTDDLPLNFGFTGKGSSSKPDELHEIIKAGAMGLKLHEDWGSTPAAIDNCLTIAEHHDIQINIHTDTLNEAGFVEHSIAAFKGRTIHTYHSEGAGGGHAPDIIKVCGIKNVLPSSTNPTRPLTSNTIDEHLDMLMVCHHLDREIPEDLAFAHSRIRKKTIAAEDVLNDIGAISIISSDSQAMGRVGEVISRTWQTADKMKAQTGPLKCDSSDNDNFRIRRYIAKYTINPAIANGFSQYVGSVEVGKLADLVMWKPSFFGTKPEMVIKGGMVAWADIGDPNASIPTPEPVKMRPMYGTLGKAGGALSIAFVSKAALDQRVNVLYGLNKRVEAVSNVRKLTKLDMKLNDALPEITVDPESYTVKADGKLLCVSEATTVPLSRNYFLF", "experiment": "biochemical", "details": "indophenol method, urea substrate 100 mM, absorbance at 630 nm, triplicate"}, "[1]": {"details": "urease inhibition IC50 ± s.e.m."}, "[2]": {"details": "read-out: urease inhibition IC50 ± s.e.m."}},
  "note": "Where “and” joins values, the source holds several entries; their conditions need not be identical. Equal entries are not always repeated. Where two headings read alike, the source gives them in different places.",
  "data": [
    {"smiles": "COC(=O)C1=C(O)c2ccccc2S(=O)(=O)N1CC(=O)Nc1ccccc1", "note": "[5a, Methyl 4-hydroxy-2-(2-oxo-2-(phenylamino)ethyl)-2H-benzo[e][1,2]thiazine-3-carboxylate 1,1-dioxide]", "values": [
      {"measurement": "IC50", "setting": "urease; [1]", "value": "10.1 ± 0.9", "unit": "µM"},
      {"measurement": "melting point", "value": "188 to 190", "unit": "°C"}
    ]},
    {"smiles": "COC(=O)C1=C(O)c2ccccc2S(=O)(=O)N1CC(=O)Nc1ccccc1OC", "note": "[5b, Methyl 4-hydroxy-2-(2-((2-methoxyphenyl)amino)-2-oxoethyl)-2H-benzo[e][1,2]thiazine-3-carboxylate 1,1-dioxide]", "values": [
      {"measurement": "IC50", "setting": "urease; [1]", "value": "14.9 ± 1.5", "unit": "µM"}
    ]},
    {"smiles": "COC(=O)C1=C(O)c2ccccc2S(=O)(=O)N1CC(=O)Nc1ccccc1C", "note": "[5c, Methyl 4-hydroxy-2-(2-oxo-2-(o-tolylamino)ethyl)-2H-benzo[e][1,2]thiazine-3-carboxylate 1,1-dioxide]", "values": [
      {"measurement": "IC50", "setting": "urease; [1]", "value": "17.2 ± 1.1", "unit": "µM"},
      {"measurement": "melting point", "value": "172 to 174", "unit": "°C"}
    ]},
    {"smiles": "COC(=O)C1=C(O)c2ccccc2S(=O)(=O)N1CC(=O)Nc1ccccc1C(=O)OC", "note": "[5d, Methyl 4-hydroxy-2-(2-((2-(methoxycarbonyl)phenyl)amino)-2-oxoethyl)-2H-benzo[e][1,2]thiazine-3-carboxylate 1,1-dioxide]", "values": [
      {"measurement": "IC50", "setting": "urease; [1]", "value": "14.1 ± 0.12", "unit": "µM"},
      {"measurement": "melting point", "value": "178 to 180", "unit": "°C"}
    ]},
    {"smiles": "COC(=O)C1=C(O)c2ccccc2S(=O)(=O)N1CC(=O)Nc1cccc(OC)c1", "note": "[5e, Methyl 4-hydroxy-2-(2-((3-methoxyphenyl)amino)-2-oxoethyl)-2H-benzo[e][1, 2]thiazine-3-carboxylate 1,1-dioxide]", "values": [
      {"measurement": "IC50", "setting": "urease; [2]", "value": "18.2 ± 1.69", "unit": "µM"}
    ]},
    {"smiles": "COC(=O)C1=C(O)c2ccccc2S(=O)(=O)N1CC(=O)Nc1cccc(C)c1", "note": "[5f, Methyl 4-hydroxy-2-(2-oxo-2-(m-tolylamino)ethyl)-2H-benzo[e][1,2]thiazine-3-carboxylate 1,1-dioxide]", "values": [
      {"measurement": "IC50", "setting": "urease; [1]", "value": "15.5 ± 1.35", "unit": "µM"},
      {"measurement": "melting point", "value": "192 to 194", "unit": "°C"}
    ]},
    {"smiles": "COC(=O)C1=C(O)c2ccccc2S(=O)(=O)N1CC(=O)Nc1ccc(OC)cc1", "note": "[5g, Methyl 4-hydroxy-2-(2-((4-methoxyphenyl)amino)-2-oxoethyl)-2H-benzo[e][1,2]thiazine-3-carboxylate 1,1-dioxide]", "values": [
      {"measurement": "IC50", "setting": "urease; [1]", "value": "20.4 ± 1.81", "unit": "µM"},
      {"measurement": "melting point", "value": "176 to 178", "unit": "°C"}
    ]},
    {"smiles": "COC(=O)C1=C(O)c2ccccc2S(=O)(=O)N1CC(=O)Nc1ccc(C)cc1", "note": "[5h, Methyl 4-hydroxy-2-(2-oxo-2-(p-tolylamino)ethyl)-2H-benzo[e][1,2]thiazine-3-carboxylate 1,1-dioxide]", "values": [
      {"measurement": "IC50", "setting": "urease; [1]", "value": "16.4 ± 1.4", "unit": "µM"}
    ]},
    {"smiles": "COC(=O)C1=C(O)c2ccccc2S(=O)(=O)N1CC(=O)Nc1ccc(Cl)cc1", "note": "[5i, Methyl 2-(2-((4-chlorophenyl)amino)-2-oxoethyl)-4-hydroxy-2H-benzo[e][1,2]thiazine-3-carboxylate 1,1-dioxide]", "values": [
      {"measurement": "IC50", "setting": "urease; [1]", "value": "20.7 ± 0.25", "unit": "µM"}
    ]},
    {"smiles": "COC(=O)C1=C(O)c2ccccc2S(=O)(=O)N1CC(=O)Nc1ccc([N+](=O)[O-])cc1", "note": "[5j, Methyl 4-hydroxy-2-(2-((4-nitrophenyl)amino)-2-oxoethyl)-2H-benzo[e][1,2]thiazine-3-carboxylate 1,1-dioxide]", "values": [
      {"measurement": "IC50", "setting": "urease; [1]", "value": "17.1 ± 1.45", "unit": "µM"},
      {"measurement": "melting point", "value": "192 to 194", "unit": "°C"}
    ]},
    {"smiles": "CCOC(=O)c1ccc(NC(=O)CN2C(C(=O)OC)=C(O)c3ccccc3S2(=O)=O)cc1", "note": "[5k, Methyl 2-(2-((4-(ethoxycarbonyl)phenyl)amino)-2-oxoethyl)-4-hydroxy-2H-benzo[e][1,2]thiazine-3-carboxylate 1,1-dioxide]", "values": [
      {"measurement": "IC50", "setting": "urease; [1]", "value": "9.8 ± 0.023", "unit": "µM"}
    ]},
    {"smiles": "COC(=O)C1=C(O)c2ccccc2S(=O)(=O)N1CC(=O)Nc1ccc(NC(C)=O)cc1", "note": "[5l, Methyl 2-(2-((4-acetamidophenyl)amino)-2-oxoethyl)-4-hydroxy-2H-benzo[e][1,2]thiazine-3-carboxylate 1,1-dioxide]", "values": [
      {"measurement": "IC50", "setting": "urease; [1]", "value": "12.6 ± 0.1", "unit": "µM"}
    ]},
    {"smiles": "COC(=O)C1=C(O)c2ccccc2S(=O)(=O)N1CC(=O)Nc1cccc(Cl)c1Cl", "note": "[5m, Methyl 2-(2-((2,3-dichlorophenyl)amino)-2-oxoethyl)-4-hydroxy-2H-benzo[e][1,2]thiazine-3-carboxylate 1,1-dioxide]", "values": [
      {"measurement": "IC50", "setting": "urease; [1]", "value": "14 µM and 14.1 µM"},
      {"measurement": "melting point", "value": "154 to 156", "unit": "°C"}
    ]},
    {"smiles": "COC(=O)C1=C(O)c2ccccc2S(=O)(=O)N1CC(=O)Nc1ccc(Cl)cc1Cl", "note": "[5n, Methyl 2-(2-((2,4-dichlorophenyl)amino)-2-oxoethyl)-4-hydroxy-2H-benzo[e][1,2]thiazine-3-carboxylate 1,1-dioxide]", "values": [
      {"measurement": "IC50", "setting": "urease; [1]", "value": "13 µM and 13.1 µM"}
    ]},
    {"smiles": "NC(N)=S", "note": "[thiourea, reference compound]", "values": [
      {"measurement": "IC50", "setting": "urease; [2]", "value": "22.3 ± 0.031", "unit": "µM"}
    ]}
  ]
}
